Test results published in US6113896A, “Pharmaceutical compositions containing ecotin and homologs thereof” (priority 1994, dated 2000).

System: normal human plasma
Assay: Activated partial thromboplastin time (APTT) clotting assay
Assay type: biochemical
Settings: ellagic acid
Protocol: For the activated partial thromboplastin time (APTT) assays, the activation time was set at 120 sec and acquisition time at 300 to 600 sec depending on the expected outcome of the assay. Citrated normal human plasma and inhibitor were incubated together. The sample (plasma and inhibitor) and activator (Instrumentation Laboratories Ellagic acid/Phospholipid mix Test Reagent) were automatically pipetted and incubated together for 2 min at 37° C., then CaCl2 was added and clotting time determined by means of optical assessment. The total incubation time of inhibitor with plasma was ca. 3 min before addition of activator, and 5 min before addition of CaCl2. Final concentrations were 0.57 nM to 5.7 μM ecotin, 15.3 ug protein/ml 293 cell membranes, 8.3 uM ellagic acid, 8.3 mM CaCl2, and 33.3% plasma in a total volume of 162 μl.

Ecotin: E. coli periplasmic protein having the 142 amino acid residue sequence reported by McGrath et al.; recombinant, P1 Met84
concentration causing 10-fold prolongation of clotting time, APTT: ~0.3 μM | concentration causing 10-fold prolongation of clotting time, APTT (listed as Wild type ecotin): ~ 0.3 μM
